According to PubChem BioAssay (NCI):
Several values for one entry are separate records, joined by “and”; a condition that tells them apart may be missing. Equal entries are not always repeated.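 Exposure lasted 48 hours, with cells grown in 96-well plates and compounds tested at five concentrations. GI50 marks 50% less growth. At the TGI there is no net growth.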

How the values were obtained:
Assay in all cases: DTP human tumour cell line panel, 48 h
NCI-H23 lung = test system: NCI-H23 lung
ACHN renal = test system: ACHN renal
SF-539 CNS = test system: SF-539 CNS
NCI/ADR-RES ovarian = test system: NCI/ADR-RES ovarian
MCF7 breast = test system: MCF7 breast
KM12 colon = test system: KM12 colon
TK-10 renal = test system: TK-10 renal
OVCAR-3 ovarian = test system: OVCAR-3 ovarian
SNB-75 CNS = test system: SNB-75 CNS
M14 melanoma = test system: M14 melanoma

Compound | GI50 (NCI-H23 lung) [µM] | TGI (NCI-H23 lung) [µM] | GI50 (ACHN renal) [µM] | TGI (ACHN renal) [µM] | GI50 (SF-539 CNS) [µM] | TGI (SF-539 CNS) [µM] | GI50 (NCI/ADR-RES ovarian) [µM] | TGI (NCI/ADR-RES ovarian) [µM] | GI50 (MCF7 breast) [µM] | TGI (MCF7 breast) [µM] | GI50 (KM12 colon) | TGI (KM12 colon) [µM] | GI50 (TK-10 renal) [µM] | TGI (TK-10 renal) [µM] | GI50 (OVCAR-3 ovarian) | TGI (OVCAR-3 ovarian) [µM] | GI50 (SNB-75 CNS) [µM] | TGI (SNB-75 CNS) [µM] | GI50 (M14 melanoma) [µM] | TGI (M14 melanoma) [µM]
Cc1nc(N)sc1C(=O)Nc1cc(C(=O)NCCCN(C)C)n(C)c1 | > 100 | > 100 | > 100 | > 100 | > 100 | > 100 | > 100 | > 100 | > 100 | > 100 | > 100 µM | > 100 | > 100 | > 100 | > 100 µM | > 100 | > 100 | > 100 |  | 
COc1cc2nc3cc([N+](=O)[O-])ccc3c(NCCCNCC(C)(C)O)c2cc1OC | 0.196 | 0.543 | 0.576 | 6.07 | 0.505 | 2.58 | 10.5 | 25.3 | 0.208 | 1.16 | 0.41 µM | 1.6 | 0.5 | 2.49 | 0.33 µM | 1.03 | 0.3 | 1.61 | 0.352 | 1.5
O=C(Oc1ccccc1Cl)c1ccccc1Nc1ccnc(C(F)(F)F)c1 | 0.0428 | 0.248 | 0.281 | 0.808 | 0.383 | 1.88 | 0.269 | 0.698 | 1.01 | > 30.8 | 0.299 µM | 1.36 | 0.415 | 4.61 | 0.247 µM | 0.533 | 0.676 | 27 | 0.252 | 0.913
O=[N+]([O-])c1ccc2ncccc2c1Cl | 6.96 | 29.8 | 4.69 | 22.3 | 2.76 | 34.2 | 3.92 | > 100 | 3.55 | 12.9 | 2.17 µM | 9.14 | 6.38 | 46.1 | 2.77 µM | 6.99 | 4.67 | > 100 | 3.01 | 11.5
COc1ccc2c(c1)[n+](=O)c(C(=O)/C=C/c1cc(OC)c(OC)c(OC)c1)c(C)n2[O-] |  |  | 13.5 | 28.8 | 14.4 | 29.7 | 32.3 | > 100 | 18 | 88.4 | > 100 µM | > 100 | 18.9 | 36 | 27.3 µM | > 100 | 12 | 34.7 | 23.3 | > 100
Nc1nc(N)c2nc(CNc3ccc(C(=O)NC(CCCNC(=O)c4ccccc4C(=O)O)C(=O)O)cc3)cnc2n1 (configuration not stated) | 0.00401 | > 100 | 0.00181 | > 100 | 0.00346 | > 100 | 0.00273 | > 100 | 0.00363 | > 100 | < 0.01 µM and 0.00297 µM | > 100 | 0.031 | > 100 | < 0.0157 µM and 0.0676 µM | > 100 |  | > 100 | 0.0226 | > 100
COC1=Nc2ccccc2S(=O)(=O)C=C1 |  | 21.4 |  | 8.83 |  | 33.3 |  | 36.2 |  | 12.3 |  | 28.4 |  | 11.3 |  | 6.79 |  | 17.5 |  | 21.4
CCCCn1sc(=O)n(Cc2ccc(CNC(=O)OCc3ccc4c(Br)cc(Br)c(O)c4n3)cc2)c1=O | 0.7 | > 100 | 0.505 | > 100 | 0.23 | 0.633 | 0.325 | > 100 | 0.369 | > 100 | 0.374 µM | > 24.4 | > 51.5 | > 100 | 0.292 µM | 0.8 | 0.499 | > 100 | 0.37 | > 100
CC/C(C)=C1\OC(=O)C(C)C(O)C(Cc2cccnc2)NC(=O)C(NC(=O)c2ncccc2O)C(C)OC1=O (configuration not stated) |  | > 100 |  | > 100 |  | > 100 |  |  |  | > 100 |  | > 100 |  | > 100 |  | > 100 |  | > 100 |  | > 100
O=C1C(Cl)=C(Nc2cccc(O)c2)C(=O)N1c1ccccc1Cl | 32.2 | > 100 | > 100 | > 100 |  |  | 56.3 | > 100 | 29.8 | > 100 | 59.5 µM | > 100 |  |  | 21.5 µM | 48.5 |  |  | 21.5 | > 100
O=C1c2c(O)cc(O)cc2OC(c2ccc(O)cc2O)C1O (configuration not stated) |  | > 100 | > 100 | > 100 | > 100 | > 100 |  |  |  | > 100 |  | > 100 |  | > 100 | > 100 µM | > 100 | > 100 | > 100 |  | > 100
C=C1C(=O)O[C@H]2[C@H]1CC/C(COC(=O)c1ccc(C#N)cc1)=C\CC[C@@]1(C)O[C@@H]21 | 2.25 | 6 | 1.85 | 4.26 | 1.64 | 3.28 | 4.25 | 18.8 |  |  | 3.94 µM | 14.8 | 3.99 | 10.8 | 1.36 µM | 2.75 | 7.23 | 21.4 | 1.69 | 3.64
C=C(C)[C@@H]1CC[C@]2(COC3CCCCO3)CC[C@]3(C)[C@H](CC[C@@H]4[C@@]5(C)C=C(C=O)C(=O)C(C)(C)[C@@H]5CC[C@]43C)[C@@H]12 (some centres not stated) | 1.62 | 3.63 | 1.26 | 2.52 | 1.21 | 2.58 | 3.16 | 26.9 | 1.52 | 3.43 | 1.37 µM | 3.5 | 1.57 | 2.96 | 1.14 µM | 2.49 |  |  | 1.34 | 3.01
